According to ChEMBL document CHEMBL1126174 (J Med Chem, 1992):

Tests used:
[1] = target: T1, Muscarinic acetylcholine receptor M1 (Rattus norvegicus) (UniProt P08482); details: Hippocampus
T1 sequence (whole entry): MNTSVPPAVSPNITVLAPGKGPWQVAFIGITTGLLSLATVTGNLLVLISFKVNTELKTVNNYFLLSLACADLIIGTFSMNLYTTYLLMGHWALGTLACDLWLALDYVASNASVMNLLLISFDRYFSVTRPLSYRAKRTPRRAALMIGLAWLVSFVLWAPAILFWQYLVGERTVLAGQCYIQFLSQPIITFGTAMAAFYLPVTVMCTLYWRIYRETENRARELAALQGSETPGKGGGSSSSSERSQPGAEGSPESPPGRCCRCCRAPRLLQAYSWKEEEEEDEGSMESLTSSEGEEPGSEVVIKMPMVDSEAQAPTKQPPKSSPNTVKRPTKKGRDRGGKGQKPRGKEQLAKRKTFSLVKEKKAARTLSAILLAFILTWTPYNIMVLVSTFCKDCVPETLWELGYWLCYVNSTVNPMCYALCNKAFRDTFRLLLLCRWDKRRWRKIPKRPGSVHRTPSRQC

[2] = target: T1, Muscarinic acetylcholine receptor M1 (Rattus norvegicus); details: Cervical ganglion
[3] = target: Muscarinic acetylcholine receptor
Description: Ability to displace [3H]cis--2-methyl-5-((dimethylamino)methyl)-1,3-di oxolane from muscarinic acetylcholine receptor in rat cortical tissue.

[4] = target: T2, Muscarinic acetylcholine receptor M1 (Rattus norvegicus, UniProt P08482)
T2 sequence (P08482 whole entry): T1 sequence (whole entry)
Description: Ability to displace [3H]pirenzepine (pir) from muscarinic acetylcholine receptor M1 in rat cortical tissue.

[5] = target: Muscarinic acetylcholine receptor M3 (Cavia porcellus) (UniProt Q8VH26); details: Ileum
Chain of Muscarinic acetylcholine receptor M3 (Cavia porcellus) (Q8VH26 1-587): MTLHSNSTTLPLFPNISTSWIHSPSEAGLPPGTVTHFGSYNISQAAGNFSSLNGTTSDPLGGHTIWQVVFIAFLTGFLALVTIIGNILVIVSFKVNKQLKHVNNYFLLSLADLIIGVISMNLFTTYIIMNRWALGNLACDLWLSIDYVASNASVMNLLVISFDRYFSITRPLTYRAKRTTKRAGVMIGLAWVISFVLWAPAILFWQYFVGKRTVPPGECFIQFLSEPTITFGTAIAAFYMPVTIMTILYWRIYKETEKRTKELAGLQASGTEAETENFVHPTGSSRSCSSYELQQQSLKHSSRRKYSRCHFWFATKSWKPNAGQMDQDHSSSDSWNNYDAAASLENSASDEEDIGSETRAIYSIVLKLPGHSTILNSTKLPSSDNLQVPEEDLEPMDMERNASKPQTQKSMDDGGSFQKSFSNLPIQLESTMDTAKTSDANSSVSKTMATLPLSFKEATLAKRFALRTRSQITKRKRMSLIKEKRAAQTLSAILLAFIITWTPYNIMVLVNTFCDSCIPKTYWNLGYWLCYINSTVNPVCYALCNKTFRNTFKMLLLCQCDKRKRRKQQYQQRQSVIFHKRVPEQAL
Description: Peripheral postsynaptic muscarinic activity by contraction of the guinea pig ileum.

Cavia porcellus = species on record: Cavia porcellus; test: (§1) Peripheral postsynaptic muscarinic activity was measured by contraction of the guinea pig ileum in M3 model; type: functional
[6] = target: Muscarinic acetylcholine receptor; remark: listed apart in the source
[7] = target: Muscarinic acetylcholine receptor M3 (Cavia porcellus) (UniProt Q8VH26); test: Peripheral postsynaptic muscarinic activity was measured relative to muscarine (100%); type: functional
[8] = target: Muscarinic acetylcholine receptor M3 (Cavia porcellus) (UniProt Q8VH26); test: as §1; type: functional, tissue-based
[9] = target: T1, Muscarinic acetylcholine receptor M1 (Rattus norvegicus); test: Central postsynaptic muscarinic activity was measured by slow depolarization of the rat cervical ganglion in M1 model; type: functional, tissue-based
[10] = Ratio of binding affinities towards muscarinic receptor using Pir to that of CD as radioligand
[11] = target: T1, Muscarinic acetylcholine receptor M1 (Rattus norvegicus); test: Central postsynaptic muscarinic activity was measured relative to muscurine (100%); type: functional, tissue-based
[12] = target: T2, Muscarinic acetylcholine receptor M1; test: Compound was tested for its ability to displace [3H]pirenzepine (pir) from M1 Muscarinic receptor in rat cortical tissue
[13] = target: T1, Muscarinic acetylcholine receptor M1 (Rattus norvegicus); test: Neuronal postsynaptic muscarinic activity was measured by firing rate of the rat hippocampal CA1 neurons in M1 model; type: functional, tissue-based; details: Hippocampus

Row | Structure (SMILES) | pD2 [1] | pD2 [2] | IC50 [3] [nM] | IC50 [4] [nM] | pD2 [5] | other results
1 | CC[C@@H]1C(O)SC[C@@H]1Cc1cncn1C (stereo partly specified) | < 4 | 4.4 | 705 | 695 | < 4 | 
2 | CC1OCC(CN(C)C)O1 (stereo unspecified) | 6.3 | 7.8 | 6.4 | 2100 | 7.5 | 
3 | C[N+](C)(C)CCOC(N)=O | 6 | 7.2 |  |  | 6.7 | 
4 | CC[C@@H]1C(=O)SC[C@@H]1Cc1cncn1C | 5.3 | 6.5 | 54 | 435 | 5.3 | 
5 | CC[C@@H]1C(=O)NC[C@@H]1Cc1cncn1C | 4.5 | 5.2 | 845 | 5150 | 4.2 | 
6 | CC[C@@H]1COC[C@@H]1Cc1cncn1C | < 4 | 5.7 | 445 | 1800 | 4.5 | 
7 | C[C@@H]1O[C@H](C[N+](C)(C)C)C[C@H]1O | 5.9 | 7.4 |  |  | 6.8 | 
8 | CCN1C(=O)OC[C@@H]1Cc1cncn1C | 5.6 | 6.1 | 100 | 288 | 5.4 | 
9 | CC[C@H]1C(=S)SC[C@@H]1Cc1cncn1C |  | 5.2 | 45 | 51 | 5.6 | 
10 | CC[C@H]1C(=O)SC[C@@H]1Cc1cncn1C | 5.4 | 4.7 | 320 | 775 | 4.8 | 
11 | CC[C@H]1C(=O)NC[C@@H]1Cc1cncn1C | 4.7 | 5.6 | 800 | 9950 | 4.6 | 
12 | O=C1CCCN1CC#CCN1CCCC1 [OXOTREMORINE] | 7.1 | 8 | 2.8 | 113 | 7.1 | 
13 | CC[C@H]1C(=O)N(C)C[C@@H]1Cc1cncn1C | 4.1 | 4.4 | 10000 | 10000 | < 4 | 
14 | CC[C@@H]1C(=O)N(C)C[C@@H]1Cc1cncn1C |  | 100 | 4600 | 10200 | 4.2 | 
15 | Cc1ccc(C[N+](C)(C)C)o1 | 5.8 | 7.1 | 5.6 | 1410 |  | pD2 (Cavia porcellus): 6.8
16 | CC[C@@H]1C(O)OC[C@@H]1Cc1cncn1C (stereo partly specified) |  |  |  |  |  | IC50 [6]: 45000 nM; Efficiency [7]: 22%; pD2 [8]: 5.2; pD2 [9]: 5.9; Ratio [10]: 2.4; Efficiency [11]: 65%; IC50 [12]: 110000 nM; pD2 [13]: < 4
17 | CC[C@H]1C(O)SC[C@@H]1Cc1cncn1C (stereo partly specified) | < 4 | 4.7 | 330 | 285 | < 4 | 
18 | Cn1cncc1C[C@H]1COC(=O)C1 [PILOSININE] |  | 4.2 | 2890 | 10000 | < 4 | 
